50 molecules from patent EP1900728A1 (Genecare Research Institute Co., Ltd, priority 2005, dated 2006) can be followed below.

Experiment [1] concerns the target T1, IκBα ubiquitinating enzyme (SCF complex: ROC1, Cullin1, Skp1, His-TrCP1; with E1, UbcH5b) (Homo sapiens, UniProt P62877+P63208+Q13616+Q9Y297).
T1 construct: His (polyhistidine); made in house; host or cells: insect cells (baculovirus) for the SCF complex and His-E1; E. coli for His-UBCH5b
Put plainly: Measurement of ubiquitinating enzyme activity (IκBα ubiquitination, time-resolved fluorescence with Eu(K)-labeled ubiquitin and XL665-labeled anti-GST antibody). In kind it is biochemical. Summed up:
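Human SCF complex with E1 and UbcH5b ubiquitinated GST-IκBα pre-phosphorylated by IKKβ (2 mM ATP, pH 7.4, 1 h, RT), with Eu(K)-ubiquitin, 30 min RT. Stopped with EDTA, XL665 anti-GST added for 2 h; 665/620 nm TR-FRET ratio. % inhibition versus no-compound control and no-SCF blank gave IC50.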

Experiment [2] deals with ICAM-1 expression in HT-29 cells. Put plainly: Measurement of ICAM-1 expressing activity (TNFα-induced ICAM-1 expression, cell ELISA). In kind it is cell-based. The note with it: Homo sapiens, Table 6, cell activity inhibition test by method (3), read-out: EVALUATION (IC50 class, inhibition of cell activity). Summed up: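 Cell ELISA read-out (anti-ICAM-1, peroxidase secondary, TMBZ, A450) after methanol fixation. Before that, HT-29 cells had 30 min compound exposure at 37°C (final DMSO 0.5%) followed by 4 h with 30 ng/mL human TNFα.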
In general terms: An ELISA detects its analyte on a solid surface through an enzyme-linked reagent.

The mark [3] stands for this setting: enzyme activity inhibition test, method (1), Table 5, read-out: EVALUATION

The structures appear in SMILES notation. pIC50: −log10 of the molar value. Where two headings read alike, the source gives them in different places.

T1 sequence (Q9Y297 whole entry): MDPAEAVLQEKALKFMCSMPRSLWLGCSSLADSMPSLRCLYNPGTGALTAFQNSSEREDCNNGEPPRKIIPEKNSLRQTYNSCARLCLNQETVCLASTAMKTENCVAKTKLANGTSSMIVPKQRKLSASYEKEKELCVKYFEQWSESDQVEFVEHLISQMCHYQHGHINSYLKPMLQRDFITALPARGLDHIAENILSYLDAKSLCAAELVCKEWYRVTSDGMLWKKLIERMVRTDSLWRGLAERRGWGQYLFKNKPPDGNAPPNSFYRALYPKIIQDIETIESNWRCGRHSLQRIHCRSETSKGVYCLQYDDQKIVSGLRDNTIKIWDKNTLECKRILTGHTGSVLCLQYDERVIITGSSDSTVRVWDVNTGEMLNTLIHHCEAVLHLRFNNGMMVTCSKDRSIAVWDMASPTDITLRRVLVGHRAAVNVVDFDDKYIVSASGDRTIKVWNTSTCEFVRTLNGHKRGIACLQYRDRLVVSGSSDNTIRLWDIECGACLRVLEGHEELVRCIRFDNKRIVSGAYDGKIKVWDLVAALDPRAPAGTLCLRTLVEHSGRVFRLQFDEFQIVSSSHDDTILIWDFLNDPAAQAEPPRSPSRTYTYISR
T1 sequence (Q13616 whole entry): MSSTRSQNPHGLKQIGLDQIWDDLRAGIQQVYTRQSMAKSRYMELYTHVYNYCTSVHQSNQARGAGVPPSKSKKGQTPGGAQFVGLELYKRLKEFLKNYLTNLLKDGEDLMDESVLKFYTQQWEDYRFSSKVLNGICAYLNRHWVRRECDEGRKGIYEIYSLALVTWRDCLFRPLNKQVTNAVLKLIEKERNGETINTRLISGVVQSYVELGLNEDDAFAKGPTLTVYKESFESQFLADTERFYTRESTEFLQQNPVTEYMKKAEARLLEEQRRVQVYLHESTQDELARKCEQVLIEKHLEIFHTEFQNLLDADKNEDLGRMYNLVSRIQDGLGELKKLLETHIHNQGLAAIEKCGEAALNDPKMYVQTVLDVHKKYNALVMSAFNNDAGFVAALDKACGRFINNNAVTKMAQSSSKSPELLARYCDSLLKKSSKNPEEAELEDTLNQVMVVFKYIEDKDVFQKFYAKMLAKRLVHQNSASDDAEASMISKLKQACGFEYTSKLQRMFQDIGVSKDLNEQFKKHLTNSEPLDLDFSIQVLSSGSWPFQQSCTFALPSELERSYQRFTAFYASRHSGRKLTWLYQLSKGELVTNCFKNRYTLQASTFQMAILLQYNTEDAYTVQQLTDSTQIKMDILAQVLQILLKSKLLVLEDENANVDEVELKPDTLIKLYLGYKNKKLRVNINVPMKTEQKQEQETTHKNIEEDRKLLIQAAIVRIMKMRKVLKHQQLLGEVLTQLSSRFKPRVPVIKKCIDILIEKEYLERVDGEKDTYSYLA
T1 sequence (P63208 whole entry): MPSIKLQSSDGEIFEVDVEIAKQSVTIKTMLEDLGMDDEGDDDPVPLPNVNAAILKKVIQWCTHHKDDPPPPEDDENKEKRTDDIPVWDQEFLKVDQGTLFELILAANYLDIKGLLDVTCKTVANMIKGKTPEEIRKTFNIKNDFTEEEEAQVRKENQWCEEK
T1 sequence (P62877 whole entry): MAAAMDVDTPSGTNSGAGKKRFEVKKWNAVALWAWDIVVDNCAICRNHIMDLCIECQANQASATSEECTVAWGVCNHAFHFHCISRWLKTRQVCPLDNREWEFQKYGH

For the molecule `CCCCC1=NN(c2cccc(C(=O)O)c2)C(=O)/C1=C\c1ccc2[nH]ccc2c1` [Compound 481], the pIC50 in experiment [1] (setting [3]) was above 5.00; in experiment [2] it was above 4.40.
On the same counts, the results for `O=C1/C(=C\c2ccc3c(c2)OCCO3)C(Cc2ccccc2)=NN1c1ccccc1` [Compound 29] are 4.70 to 5.00 and 4.70 to 5.00.
On to `COc1ccc(C2=NN(c3ccc(C(=O)O)cc3)C(=O)/C2=C\c2ccc(CO)o2)cc1OC` [Compound 280], for which the results for the pIC50 in experiment [1] (setting [3]) and in experiment [2] were 4.70 to 5.00 and above 4.40, respectively.
Consider `CC1=NN(c2ccc(S(N)(=O)=O)cc2)C(=O)C1=Cc1ccc(N2CCN(C(=O)OC(C)(C)C)CC2)cc1` [Compound 179], for which the pIC50 in experiment [1] is 4.70 to 5.00; in experiment [2], above 4.40.
Regarding `CC1=NN(c2ccc(C(=O)O)cc2)C(=O)/C1=C\c1ccc(CO)o1` [Compound 255], the pIC50 in experiment [1] (setting [3]) was above 5.00; in experiment [2], 4.70 to 5.00.
On the same counts, the results for `COc1cc(/C=C2\C(=O)N(c3ccc(C(=O)O)cc3)N=C2C2CC2)ccc1OCc1ccccc1` [Compound 314] are above 5.00 and 4.70 to 5.00.
`COCC1=NN(Cc2cccc(O)c2)C(=O)/C1=C\c1ccc(-c2ccccc2F)o1` [Compound 190]: the pIC50 in experiment [1] (setting [3]) and in experiment [2] was 4.70 to 5.00 each time.
Consider `COCC1=NN(c2ccc(C(=O)O)cc2)C(=O)/C1=C\c1ccc2ccccc2c1` [Compound 233], for which the pIC50 in experiment [1] (setting [3]) and in experiment [2] was above 5.00 in each case.
Turning to `CCOC(=O)COc1ccc(C=C2C(=O)N(c3ccc(S(N)(=O)=O)cc3)N=C2C)cc1` [Compound 215], the pIC50 in experiment [1] and in experiment [2] was 4.70 to 5.00 in each case.
As to `CC1=NN(c2ccc(S(N)(=O)=O)cc2)C(=O)/C1=C\c1ccc(NC(=O)/C=C/c2ccccc2)cc1` [Compound 230], the figures for the pIC50 in experiment [1] (setting [3]) and in experiment [2] were above 5.00 and above 4.40, respectively.
In the same order, the values of `CC1=NN(Cc2cccc(O)c2)C(=O)/C1=C\c1ccc(-c2ccccc2F)o1` [Compound 185] are above 5.00 and 4.70 to 5.00.
As to `CC1=NN(c2ccc(C(=O)O)cc2)C(=O)/C1=C\c1ccc(N2CCN(C(=O)OC(C)(C)C)CC2)cc1` [Compound 436], the pIC50 in experiment [1] (setting [3]) is 4.70 to 5.00; in experiment [2], above 4.40.
On the same counts, the results for `O=C(O)c1cccc(N2N=C(Cc3ccccc3)/C(=C/c3ccc(-c4ccccc4F)o3)C2=O)c1` [Compound 519] are 4.70 to 5.00 and above 5.00.
On the same counts, the results for `CC1=NN(c2cccc(C(=O)N3CCC(O)CC3)c2)C(=O)/C1=C\c1ccc2[nH]ccc2c1` [Compound 373] are above 5.00 and above 4.40.
Consider `CCCNC(=O)COc1ccc(C=C2C(=O)N(c3ccccc3)N=C2C)cc1` [Compound 204], for which the pIC50 in experiment [1] and in experiment [2] was 4.70 to 5.00 throughout.
Turning to `CC1=NN(c2ccc(C(=O)O)cc2)C(=O)/C1=C\c1ccc2c(ccn2Cc2c(C)noc2C)c1` [Compound 497], the pIC50 in experiment [1] (setting [3]) was above 5.00; in experiment [2] it was 4.70 to 5.00.
Turning to `COC(=O)N1CCN(c2ccc(C=C3C(=O)N(c4ccccc4)N=C3C3CC3)cc2)CC1` [Compound 73], the values for the pIC50 in experiment [1] and in experiment [2] were 4.70 to 5.00 and above 4.40, respectively.
Consider `CC1=NN(c2ccc(C(=O)O)cc2)C(=O)/C1=C\c1ccc2c(c1)OCCO2` [Compound 259], for which the pIC50 in experiment [1] (setting [3]) and in experiment [2] was above 5.00 throughout.
In the case of `CC1=NN(c2ccc(C(=O)O)cc2)C(=O)/C1=C\c1ccc(-n2cncn2)cc1` [Compound 262], the pIC50 in experiment [1] (setting [3]) is above 5.00; in experiment [2] it was 4.70 to 5.00.
In the same order, the values of `COc1cc(/C=C2\C(=O)N(c3ccc(S(N)(=O)=O)cc3)N=C2C)ccc1OCC(=O)OC(C)(C)C` [Compound 121] are 4.70 to 5.00 and 4.70 to 5.00.
For the molecule `O=C(O)c1ccc(N2N=C(c3ccncc3)/C(=C/c3ccc(CO)o3)C2=O)cc1` [Compound 334], the pIC50 is above 5.00 in experiment [1] (setting [3]) and above 4.40 in experiment [2].
Take `CCCCC1=NN(c2ccc(C(=O)O)cc2)C(=O)/C1=C\c1ccc(-n2cccn2)cc1` [Compound 305]: the pIC50 in experiment [1] (setting [3]) is above 5.00; in experiment [2], 4.70 to 5.00.
Turning to `COC(=O)N1CCN(c2ccc(C=C3C(=O)N(c4ccccc4)N=C3c3ccc(OC)c(OC)c3)cc2)CC1` [Compound 33], the values for the pIC50 in experiment [1] and in experiment [2] were 4.70 to 5.00 and above 4.40, respectively.
For `CC1=NN(c2ccc(C(=O)O)cc2)C(=O)/C1=C\c1ccc(OCC(=O)N2CCOCC2)cc1` [Compound 538], the pIC50 is above 5.00 in experiment [1] (setting [3]) and above 4.40 in experiment [2].
Take `CC(C)=CC(=O)Nc1ccc(C=C2C(=O)N(c3ccc(S(N)(=O)=O)cc3)N=C2C)cc1` [Compound 232]: the pIC50 in experiment [1] was 4.70 to 5.00; in experiment [2], above 4.40.
Take `CC1=NN(c2ccc(C(=O)O)cc2)C(=O)/C1=C\c1ccc(-n2cccn2)cc1` [Compound 261]: the pIC50 is above 5.00 in experiment [1] (setting [3]) and 4.70 to 5.00 in experiment [2].
Take `O=C(O)c1ccc(N2N=C(C3CC3)/C(=C/c3ccc4c(c3)OCCO4)C2=O)cc1` [Compound 319]: the pIC50 in experiment [1] (setting [3]) and in experiment [2] was above 5.00 in each case.
For the molecule `CC1=NN(c2cccc(C(=O)O)c2)C(=O)/C1=C\c1ccc(N2CCN(C(=O)OC(C)(C)C)CC2)cc1` [Compound 437], the pIC50 is 4.70 to 5.00 in experiment [1] (setting [3]) and above 4.40 in experiment [2].
On the same counts, the results for `O=C(O)c1cccc(N2N=C(c3ccoc3)/C(=C/c3ccc(-c4ccccc4F)o3)C2=O)c1` [Compound 484] are above 5.00 and 4.70 to 5.00.
Regarding `CC1=NN(c2ccc(S(N)(=O)=O)cc2)C(=O)C1=Cc1ccc(OCC(=O)Nc2ccccc2)cc1` [Compound 210], the pIC50 in experiment [1] was above 5.00; in experiment [2], 4.70 to 5.00.
In the same order, the values of `CC1=NN(c2ccc(S(N)(=O)=O)cc2)C(=O)C1=Cc1ccc(NC(=O)c2ccccc2F)cc1` [Compound 225] are above 5.00 and above 4.40.
For the molecule `O=C(O)c1ccc(N2N=C(Cc3ccccc3)/C(=C/c3ccc4c(c3)OCCO4)C2=O)cc1` [Compound 272], the results for the pIC50 in experiment [1] (setting [3]) and in experiment [2] were 4.70 to 5.00 and above 5.00, respectively.
In the same order, the values of `CC1=NN(c2ccc(S(N)(=O)=O)cc2)C(=O)/C1=C\c1ccc2[nH]ccc2c1` [Compound 133] are above 5.00 and above 4.40.
Consider `COCC1=NN(c2ccc(C(=O)O)cc2)C(=O)/C1=C\c1ccc2c(c1)OCO2` [Compound 464], for which the pIC50 is 4.70 to 5.00 in experiment [1] (setting [3]) and above 4.40 in experiment [2].
On the same counts, the results for `Cn1cc(-c2ccc(/C=C3\C(=O)N(c4ccc(C(=O)O)cc4)N=C3c3ccoc3)o2)cn1` [Compound 489] are above 5.00 and above 5.00.
On the same counts, the results for `COC(=O)N1CCN(c2ccc(/C=C3\C(=O)N(c4ccc(C(=O)O)cc4)N=C3Cc3ccccc3)cc2)CC1` [Compound 266] are above 5.00 and 4.70 to 5.00.
On the same counts, the results for `COc1cc(/C=C2\C(=O)N(c3ccc(C(=O)O)cc3)N=C2Cc2ccccc2)ccc1O` [Compound 263] are 4.70 to 5.00 and 4.70 to 5.00.
Turning to `CCCCC1=NN(c2ccc(C(=O)O)cc2)C(=O)/C1=C\c1ccc(N2CCN(c3ccccc3)CC2)cc1` [Compound 434], the pIC50 is above 5.00 in experiment [1] (setting [3]) and above 4.40 in experiment [2].
On the same counts, the results for `COc1cc(/C=C2\C(=O)N(c3ccccc3)N=C2C2CC2)ccc1O` [Compound 69] are 4.70 to 5.00 and 4.70 to 5.00.
In the same order, the values of `CC1=NN(c2cccc(C(=O)N3CCCC(C(=O)O)C3)c2)C(=O)/C1=C\c1ccc2[nH]ccc2c1` (stereo not shown) [Compound 376] are above 5.00 and above 4.40.
On the same counts, the results for `CC1=NN(c2ccc(S(N)(=O)=O)cc2)C(=O)/C1=C\c1ccc(-c2ccccc2)cc1` [Compound 117] are above 5.00 and 4.70 to 5.00.
Take `CCCCC1=NN(c2ccc(C(=O)O)cc2)C(=O)/C1=C\c1ccc2c(c1)OCCO2` [Compound 303]: the pIC50 in experiment [1] (setting [3]) and in experiment [2] was above 5.00 throughout.
As to `COC(=O)N1CCN(c2ccc(/C=C3\C(=O)N(c4ccccc4)N=C3c3ccoc3)cc2)CC1` [Compound 14], the pIC50 was above 5.00 in experiment [1] (setting [3]) and above 4.40 in experiment [2].
As to `COc1ccc(C(=O)Nc2ccc(C=C3C(=O)N(c4ccc(S(N)(=O)=O)cc4)N=C3C)cc2)cc1` [Compound 229], the pIC50 in experiment [1] is above 5.00; in experiment [2] it was 4.70 to 5.00.
Turning to `CC1=NN(c2ccc(C(=O)O)cc2)C(=O)/C1=C\c1ccc(N2CCN(c3ccc(F)cc3)CC2)cc1` [Compound 448], the pIC50 in experiment [1] (setting [3]) was above 5.00; in experiment [2] it was 4.70 to 5.00.
For the molecule `CC1=NN(c2ccc(C(=O)O)cc2)C(=O)C1=Cc1ccc(OCc2ccc([N+](=O)[O-])cc2)cc1` [Compound 541], the pIC50 in experiment [1] and in experiment [2] was above 5.00 in each case.
Turning to `CC1=NN(c2cccc(C(=O)O)c2)C(=O)/C1=C\c1ccc2c(ccn2CC2CC2)c1` [Compound 499], the pIC50 in experiment [1] (setting [3]) is above 5.00; in experiment [2] it was above 4.40.
On the same counts, the results for `COc1ccc(C2=NN(c3ccc(C(=O)O)cc3)C(=O)/C2=C\c2ccc3ccccc3c2)cc1` [Compound 325] are above 5.00 and above 5.00.
In the same order, the values of `CC1=NN(c2ccc(C(=O)O)cc2)C(=O)/C1=C\c1cccc(O)c1` [Compound 542] are above 5.00 and above 4.40.
Take `O=C1/C(=C\c2ccc(CO)o2)C(Cc2ccccc2)=NN1c1ccccc1` [Compound 27]: the pIC50 in experiment [1] (setting [3]) is above 5.00; in experiment [2], 4.70 to 5.00.
